Assay results taken from ChEMBL document CHEMBL4330059, “Discovery of N1-(4-((7-(3-(4-ethylpiperazin-1-yl)propoxy)-6-methoxyquinolin-4-yl)oxy)-3,5-difluorophenyl)-N3-(2-(2,6-difluorophenyl)-4-oxothiazolidin-3-yl)urea as a multi-tyrosine kinase inhibitor for drug-sensitive and drug-resistant cancers treatment” (Eur J Med Chem, 2019).
Calls of active or inactive are those of the source. No cut-off for these calls is given here.

What was measured:
[1] = target: Epidermal growth factor receptor (Homo sapiens, UniProt P00533); experiment: Inhibition of EGFR (unknown origin) using FAM-labelled peptide and ATP incubated for 10 mins by mobility shift assay
HT-29 [2] = experiment: Induction of apoptosis in human HT-29 cells after 72 hrs by Annexin V-FITC/propidium iodide staining-based flow cytometric analysis; type: functional, cell-based
HT-29 [3] = experiment: Cytotoxicity against human HT-29 cells assessed as increase in dead cells at 0.01 ug/mL after 72 hrs by yoyo-1 dye-based fluorescence assay; type: functional, cell-based
[4] = target: Proto-oncogene tyrosine-protein kinase Src (Homo sapiens, UniProt P12931); experiment: Inhibition of c-Src (unknown origin) using FAM-labelled peptide and ATP incubated for 10 mins by mobility shift assay
[5] = target: T1, Hepatocyte growth factor receptor (Homo sapiens, UniProt P08581); experiment: Inhibition of c-Met in human HT-29 cells assessed as decrease in ERK1/2 phosphorylation at 3 ug/mL after 72 hrs by Western blot analysis; type: cell-based
HT-29 [6] = experiment: Induction of apoptosis in human HT-29 cells assessed as late apoptotic cells at 3 ug/mL after 72 hrs by Annexin V-FITC/propidium iodide staining-based flow cytometric analysis (reference value: 0.1%); type: functional
[7] = target: T2, Tyrosine-protein kinase receptor UFO (Homo sapiens, UniProt P30530); experiment: Inhibition of AXL (unknown origin) using FAM-labelled peptide and ATP incubated for 10 mins by mobility shift assay
T2 sequence (P30530 whole entry): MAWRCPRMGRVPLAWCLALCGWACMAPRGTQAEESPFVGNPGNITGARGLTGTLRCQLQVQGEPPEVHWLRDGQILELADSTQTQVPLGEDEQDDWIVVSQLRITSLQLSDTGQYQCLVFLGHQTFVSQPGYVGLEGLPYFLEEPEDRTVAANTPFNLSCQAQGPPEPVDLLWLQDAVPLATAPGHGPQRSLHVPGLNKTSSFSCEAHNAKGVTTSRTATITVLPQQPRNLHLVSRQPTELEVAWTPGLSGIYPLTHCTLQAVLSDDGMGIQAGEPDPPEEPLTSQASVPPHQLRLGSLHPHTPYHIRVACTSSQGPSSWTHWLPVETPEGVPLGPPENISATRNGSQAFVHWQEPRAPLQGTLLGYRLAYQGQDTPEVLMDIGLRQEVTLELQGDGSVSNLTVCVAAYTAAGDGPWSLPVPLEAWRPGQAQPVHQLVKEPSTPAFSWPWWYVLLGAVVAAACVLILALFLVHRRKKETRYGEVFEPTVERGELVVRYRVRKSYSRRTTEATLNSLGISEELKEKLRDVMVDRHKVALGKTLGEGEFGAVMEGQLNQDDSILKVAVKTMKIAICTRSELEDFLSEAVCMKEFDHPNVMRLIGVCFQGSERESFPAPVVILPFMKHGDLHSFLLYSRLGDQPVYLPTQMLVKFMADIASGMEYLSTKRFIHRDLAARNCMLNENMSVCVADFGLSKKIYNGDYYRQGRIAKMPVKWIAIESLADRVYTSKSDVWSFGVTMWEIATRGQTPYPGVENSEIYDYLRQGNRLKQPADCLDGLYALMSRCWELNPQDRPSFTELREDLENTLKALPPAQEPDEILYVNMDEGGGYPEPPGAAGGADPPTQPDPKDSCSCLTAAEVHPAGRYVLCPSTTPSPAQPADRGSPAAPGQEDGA

HT-29 [8] = experiment: Cytotoxicity against human HT-29 cells assessed as increase in dead cells after 72 hrs by yoyo-1 dye-based fluorescence assay; type: functional, cell-based
[9] = Selectivity index, ratio of IC50 for human FHC cells to IC50 for human HT-29 cells; type: toxicity; settings: FHC cells and HT-29 cells, read-out: Ratio IC50
FHC = experiment: Cytotoxicity against human FHC cells after 72 hrs by MTT assay; type: cell-based
MDA-MB-231 = experiment: Antiproliferative activity against human MDA-MB-231 cells after 72 hrs by MTT assay; type: functional, cell-based; settings: MDA-MB-231, 72 h
[10] = target: Receptor tyrosine-protein kinase erbB-2 (Homo sapiens, UniProt P04626); experiment: Inhibition of HER-2 (unknown origin) using FAM-labelled peptide and ATP incubated for 10 mins by mobility shift assay
HT-29 [11] = experiment: Induction of apoptosis in human HT-29 cells assessed as early apoptotic cells at 3 ug/mL after 72 hrs by Annexin V-FITC/propidium iodide staining-based flow cytometric analysis (reference value: 0%); type: functional
HT-29 [12] = experiment: Induction of apoptosis in human HT-29 cells assessed as early apoptotic cells at 0.1 ug/mL after 72 hrs by Annexin V-FITC/propidium iodide staining-based flow cytometric analysis (reference value: 0%); type: functional
HT-29 [13] = experiment: Antimigratory activity against human HT-29 cells at 3.33 ug/mL after 48 to 72 hrs by wound healing assay; type: functional, cell-based
A549 = experiment: Antiproliferative activity against human A549 cells after 72 hrs by MTT assay; type: functional, cell-based; settings: A549, 72 h
HT-29 [14] = experiment: Antiproliferative activity against human HT-29 cells assessed as cell confluence level at 10 ug/ml after 72 hrs by IncuCyte live-cell imaging assay (reference value: 87.5%); type: functional
HT-29 [15] = experiment: Induction of apoptosis in human HT-29 cells assessed as late apoptotic cells at 1 ug/mL after 72 hrs by Annexin V-FITC/propidium iodide staining-based flow cytometric analysis (reference value: 0.1%); type: functional
[16] = target: T1, Hepatocyte growth factor receptor; experiment: Inhibition of c-Met (unknown origin) using FAM-labelled peptide and ATP incubated for 10 mins by mobility shift assay
HT-29 [17] = experiment: Antiproliferative activity against human HT-29 cells assessed as cell confluence level at 0.37 ug/ml after 0 to 12 hrs by IncuCyte live-cell imaging assay (reference value: 87.5%); type: functional
HT-29 [18] = experiment: Induction of apoptosis in human HT-29 cells assessed as early apoptotic cells at 1 ug/mL after 72 hrs by Annexin V-FITC/propidium iodide staining-based flow cytometric analysis (reference value: 0%); type: functional
[19] = Antiproliferative activity against human MCF7/DX cells after 72 hrs by MTT assay; type: functional, cell-based
[20] = target: Macrophage-stimulating protein receptor (Homo sapiens, UniProt Q04912); experiment: Inhibition of Ron (unknown origin) using FAM-labelled peptide and ATP incubated for 10 mins by mobility shift assay
HT-29 [21] = experiment: Antimigratory activity against human HT-29 cells at <3.33 ug/mL after 48 to 72 hrs by wound healing assay; type: functional, cell-based
[22] = target: T1, Hepatocyte growth factor receptor; experiment: Inhibition of c-Met in human HT-29 cells assessed as decrease in Akt phosphorylation at 3 ug/mL after 72 hrs by Western blot analysis; type: cell-based
[23] = target: Mast/stem cell growth factor receptor Kit (Homo sapiens, UniProt P10721); experiment: Inhibition of c-Kit (unknown origin) using FAM-labelled peptide and ATP incubated for 10 mins by mobility shift assay
HT-29 [24] = experiment: Cytotoxicity against human HT-29 cells assessed as increase in dead cells at 3.33 ug/mL up to 72 hrs by yoyo-1 dye-based fluorescence assay; type: functional, cell-based
HT-29 [25] = experiment: Induction of apoptosis in human HT-29 cells assessed as late apoptotic cells at 0.3 ug/mL after 72 hrs by Annexin V-FITC/propidium iodide staining-based flow cytometric analysis (reference value: 0.1%); type: functional
A549/CDDP = experiment: Antiproliferative activity against human A549/CDDP cells after 72 hrs by MTT assay; type: functional, cell-based
[26] = target: Vascular endothelial growth factor receptor 2 (Homo sapiens, UniProt P35968); experiment: Inhibition of KDR (unknown origin) using FAM-labelled peptide and ATP incubated for 10 mins by mobility shift assay
[27] = target: Insulin-like growth factor 1 receptor (Homo sapiens, UniProt P08069); experiment: Inhibition of IGF-1R (unknown origin) using FAM-labelled peptide and ATP incubated for 10 mins by mobility shift assay
HT-29 [28] = experiment: Antiproliferative activity against human HT-29 cells after 72 hrs by IncuCyte live-cell imaging assay; type: functional, cell-based
[29] = target: ALK tyrosine kinase receptor (Homo sapiens, UniProt Q9UM73); experiment: Inhibition of ALK (unknown origin) using FAM-labelled peptide and ATP incubated for 10 mins by mobility shift assay
HT-29 [30] = experiment: Induction of apoptosis in human HT-29 cells assessed as late apoptotic cells at 0.1 ug/mL after 72 hrs by Annexin V-FITC/propidium iodide staining-based flow cytometric analysis (reference value: 0.1%); type: functional
MCF7 = experiment: Antiproliferative activity against human MCF7 cells after 72 hrs by MTT assay; type: functional, cell-based; settings: MCF7, 72 h
HT-29 [31] = experiment: Antiproliferative activity against human HT-29 cells after 72 hrs by MTT assay; type: functional, cell-based; settings: HT-29, 72 h
[32] = target: T1, Hepatocyte growth factor receptor; experiment: Inhibition of c-Met phosphorylation in human HT-29 cells at 3 ug/mL after 72 hrs by Western blot analysis; type: cell-based
HT-29 [33] = experiment: Induction of apoptosis in human HT-29 cells assessed as early apoptotic cells at 0.3 ug/mL after 72 hrs by Annexin V-FITC/propidium iodide staining-based flow cytometric analysis (reference value: 0%); type: functional

T1 sequence (P08581 whole entry): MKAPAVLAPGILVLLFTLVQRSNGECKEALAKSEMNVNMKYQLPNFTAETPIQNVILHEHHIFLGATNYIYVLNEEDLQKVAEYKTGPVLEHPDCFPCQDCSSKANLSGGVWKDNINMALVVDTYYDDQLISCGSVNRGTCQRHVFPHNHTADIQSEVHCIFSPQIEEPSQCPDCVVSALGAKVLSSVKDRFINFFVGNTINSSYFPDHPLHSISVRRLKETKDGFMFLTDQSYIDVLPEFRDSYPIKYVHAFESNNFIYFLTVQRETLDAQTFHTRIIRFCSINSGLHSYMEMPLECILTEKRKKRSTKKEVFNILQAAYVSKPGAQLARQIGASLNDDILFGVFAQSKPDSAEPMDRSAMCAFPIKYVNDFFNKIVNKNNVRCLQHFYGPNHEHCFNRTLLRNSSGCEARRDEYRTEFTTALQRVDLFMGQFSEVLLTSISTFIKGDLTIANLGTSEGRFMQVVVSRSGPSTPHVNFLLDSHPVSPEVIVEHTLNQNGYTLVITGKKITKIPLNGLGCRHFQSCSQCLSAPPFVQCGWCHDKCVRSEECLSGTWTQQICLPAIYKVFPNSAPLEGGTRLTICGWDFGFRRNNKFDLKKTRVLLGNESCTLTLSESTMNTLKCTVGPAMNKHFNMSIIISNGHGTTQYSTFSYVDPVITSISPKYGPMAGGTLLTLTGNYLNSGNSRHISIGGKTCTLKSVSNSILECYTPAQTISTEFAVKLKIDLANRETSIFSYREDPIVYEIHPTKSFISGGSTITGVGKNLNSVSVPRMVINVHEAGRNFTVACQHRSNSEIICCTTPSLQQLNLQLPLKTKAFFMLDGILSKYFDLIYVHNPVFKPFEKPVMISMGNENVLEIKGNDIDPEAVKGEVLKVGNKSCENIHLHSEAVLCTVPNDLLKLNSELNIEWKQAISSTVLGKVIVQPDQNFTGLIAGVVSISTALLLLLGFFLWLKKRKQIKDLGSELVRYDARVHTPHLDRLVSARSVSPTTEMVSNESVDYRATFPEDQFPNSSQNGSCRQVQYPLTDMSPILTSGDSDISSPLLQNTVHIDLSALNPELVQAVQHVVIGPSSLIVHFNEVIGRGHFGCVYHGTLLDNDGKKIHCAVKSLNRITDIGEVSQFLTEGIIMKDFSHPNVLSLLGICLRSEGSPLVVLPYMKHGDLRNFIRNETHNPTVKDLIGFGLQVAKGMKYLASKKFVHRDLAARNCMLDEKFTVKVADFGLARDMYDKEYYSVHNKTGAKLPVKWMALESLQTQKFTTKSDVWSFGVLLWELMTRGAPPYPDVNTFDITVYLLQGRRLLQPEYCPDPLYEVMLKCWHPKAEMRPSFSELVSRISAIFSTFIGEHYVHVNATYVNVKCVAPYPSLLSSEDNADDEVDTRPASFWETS
Receptor tyrosine-protein kinase erbB-2, sequence (P04626 whole entry): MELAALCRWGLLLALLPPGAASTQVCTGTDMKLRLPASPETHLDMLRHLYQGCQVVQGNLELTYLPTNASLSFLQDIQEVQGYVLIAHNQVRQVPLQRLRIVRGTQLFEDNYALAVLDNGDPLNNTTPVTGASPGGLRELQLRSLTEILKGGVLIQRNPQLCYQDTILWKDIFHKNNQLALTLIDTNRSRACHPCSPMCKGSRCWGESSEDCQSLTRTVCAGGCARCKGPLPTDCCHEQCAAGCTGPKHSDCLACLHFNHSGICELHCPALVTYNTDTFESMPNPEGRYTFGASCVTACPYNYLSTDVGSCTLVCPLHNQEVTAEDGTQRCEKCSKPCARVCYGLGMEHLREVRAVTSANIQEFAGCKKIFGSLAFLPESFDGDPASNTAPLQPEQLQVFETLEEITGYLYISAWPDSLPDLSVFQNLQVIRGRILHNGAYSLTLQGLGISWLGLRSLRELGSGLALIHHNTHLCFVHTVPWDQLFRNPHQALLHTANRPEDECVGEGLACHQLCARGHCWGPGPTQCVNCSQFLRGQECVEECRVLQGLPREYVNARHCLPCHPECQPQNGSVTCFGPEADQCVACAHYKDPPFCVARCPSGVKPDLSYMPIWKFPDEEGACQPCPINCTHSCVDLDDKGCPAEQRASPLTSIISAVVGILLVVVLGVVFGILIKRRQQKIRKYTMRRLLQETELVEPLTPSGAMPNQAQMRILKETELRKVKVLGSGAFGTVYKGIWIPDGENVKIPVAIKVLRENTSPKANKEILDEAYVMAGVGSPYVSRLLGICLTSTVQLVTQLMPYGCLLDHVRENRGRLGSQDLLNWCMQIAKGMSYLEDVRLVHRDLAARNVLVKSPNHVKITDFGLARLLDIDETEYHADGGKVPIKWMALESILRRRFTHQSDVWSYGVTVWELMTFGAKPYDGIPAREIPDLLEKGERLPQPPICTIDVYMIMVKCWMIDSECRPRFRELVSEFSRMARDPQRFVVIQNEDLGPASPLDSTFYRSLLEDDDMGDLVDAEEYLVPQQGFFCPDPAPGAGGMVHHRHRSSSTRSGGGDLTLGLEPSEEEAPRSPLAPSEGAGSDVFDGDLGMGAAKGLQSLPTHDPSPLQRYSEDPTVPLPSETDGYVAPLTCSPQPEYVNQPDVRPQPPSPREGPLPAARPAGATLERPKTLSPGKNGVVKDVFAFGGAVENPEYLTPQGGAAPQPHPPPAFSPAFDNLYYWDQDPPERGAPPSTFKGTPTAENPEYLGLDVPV
Proto-oncogene tyrosine-protein kinase Src, sequence (P12931 2-536 limits assumed): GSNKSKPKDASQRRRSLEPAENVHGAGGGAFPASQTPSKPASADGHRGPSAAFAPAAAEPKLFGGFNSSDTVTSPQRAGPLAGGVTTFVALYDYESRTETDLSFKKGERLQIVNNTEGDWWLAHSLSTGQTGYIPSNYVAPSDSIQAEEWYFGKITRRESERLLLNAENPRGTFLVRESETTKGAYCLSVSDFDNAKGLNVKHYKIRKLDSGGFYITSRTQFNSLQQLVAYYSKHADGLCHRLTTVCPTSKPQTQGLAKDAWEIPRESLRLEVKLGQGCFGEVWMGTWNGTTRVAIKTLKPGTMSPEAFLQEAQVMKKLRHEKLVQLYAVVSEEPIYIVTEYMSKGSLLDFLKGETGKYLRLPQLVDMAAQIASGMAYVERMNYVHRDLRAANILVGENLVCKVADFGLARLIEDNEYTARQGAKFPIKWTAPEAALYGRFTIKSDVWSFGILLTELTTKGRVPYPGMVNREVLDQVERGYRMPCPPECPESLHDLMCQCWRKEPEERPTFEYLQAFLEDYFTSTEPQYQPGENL
Macrophage-stimulating protein receptor, sequence (Q04912 25-304 limits assumed): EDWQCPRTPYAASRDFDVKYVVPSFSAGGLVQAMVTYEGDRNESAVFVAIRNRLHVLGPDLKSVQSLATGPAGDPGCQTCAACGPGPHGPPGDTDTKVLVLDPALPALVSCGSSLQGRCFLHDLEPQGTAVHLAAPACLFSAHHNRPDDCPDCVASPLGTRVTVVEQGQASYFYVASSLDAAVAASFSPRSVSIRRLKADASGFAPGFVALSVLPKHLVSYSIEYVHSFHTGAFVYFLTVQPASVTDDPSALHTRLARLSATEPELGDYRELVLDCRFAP
Macrophage-stimulating protein receptor, sequence (Q04912 310-1400 limits assumed): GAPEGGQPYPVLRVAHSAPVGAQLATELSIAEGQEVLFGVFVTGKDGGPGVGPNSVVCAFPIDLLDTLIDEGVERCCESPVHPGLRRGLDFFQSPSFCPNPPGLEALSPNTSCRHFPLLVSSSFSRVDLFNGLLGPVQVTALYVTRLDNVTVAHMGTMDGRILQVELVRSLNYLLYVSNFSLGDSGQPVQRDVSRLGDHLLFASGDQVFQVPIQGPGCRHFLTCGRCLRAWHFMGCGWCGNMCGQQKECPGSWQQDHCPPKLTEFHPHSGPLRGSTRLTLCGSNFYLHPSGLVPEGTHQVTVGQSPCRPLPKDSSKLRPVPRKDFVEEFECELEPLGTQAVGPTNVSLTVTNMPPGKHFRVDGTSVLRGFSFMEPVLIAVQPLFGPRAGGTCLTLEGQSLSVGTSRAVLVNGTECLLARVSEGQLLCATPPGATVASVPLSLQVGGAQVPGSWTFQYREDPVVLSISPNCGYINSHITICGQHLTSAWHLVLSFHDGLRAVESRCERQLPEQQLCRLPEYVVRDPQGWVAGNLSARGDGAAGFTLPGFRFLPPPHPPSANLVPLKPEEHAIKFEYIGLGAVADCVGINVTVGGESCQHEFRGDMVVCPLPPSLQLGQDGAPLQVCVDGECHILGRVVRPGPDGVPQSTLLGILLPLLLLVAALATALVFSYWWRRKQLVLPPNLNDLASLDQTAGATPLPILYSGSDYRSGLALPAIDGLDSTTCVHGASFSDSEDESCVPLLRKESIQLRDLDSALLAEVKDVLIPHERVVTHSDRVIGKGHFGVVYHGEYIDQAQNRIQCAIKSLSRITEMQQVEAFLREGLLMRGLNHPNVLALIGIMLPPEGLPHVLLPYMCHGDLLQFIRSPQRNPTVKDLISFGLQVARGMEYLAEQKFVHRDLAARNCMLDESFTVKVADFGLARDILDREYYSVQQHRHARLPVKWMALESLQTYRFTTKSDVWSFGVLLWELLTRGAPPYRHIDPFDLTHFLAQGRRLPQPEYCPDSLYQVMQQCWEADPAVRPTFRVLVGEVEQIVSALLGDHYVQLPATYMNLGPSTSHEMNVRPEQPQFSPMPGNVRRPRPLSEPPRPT

## CCN1CCN(CCCOc2cc3nccc(Oc4c(F)cc(NC(=O)NN5C(=O)CSC5c5c(F)cccc5F)cc4F)c3cc2OC)CC1 (stereo not drawn)
[1]
  IC50: 520 nM
HT-29 [2]
  Activity: Dose-dependent effect
HT-29 [3]
  Activity: Active
[4]
  IC50: 240 nM
[5]
  inhibition: Active
HT-29 [6]
  Activity: 10.3%
[7]
  IC50: 53 nM
HT-29 [8]
  Activity: Dose-dependent effect
[9]
  selectivity ratio: 16.2
FHC
  IC50: 1180 nM
MDA-MB-231
  IC50: 3100 nM
[10]
  IC50: > 10000 nM
HT-29 [11]
  Activity: 74.5%
HT-29 [12]
  Activity: 17.4%
HT-29 [13]
  Activity: Active
A549
  IC50: 350 nM
HT-29 [14]
  Activity: 24.3%
HT-29 [15]
  Activity: 11%
[16]
  IC50: 15 nM
HT-29 [17]
  Activity: 63.6%
HT-29 [18]
  Activity: 70.2%
[19]
  IC50: 3800 nM
[20]
  IC50: 2.9 nM
HT-29 [21]
  Activity: inactive
[22]
  inhibition: Active
[23]
  IC50: 64 nM
HT-29 [24]
  Activity: Active
HT-29 [25]
  Activity: 9.6%
A549/CDDP
  IC50: 630 nM
[26]
  IC50: 850 nM
[27]
  IC50: 2100 nM
HT-29 [28]
  Activity: Dose-dependent effect
[29]
  IC50: > 10000 nM
HT-29 [30]
  Activity: 9.9%
MCF7
  IC50: 1500 nM
HT-29 [31]
  IC50: 73 nM
[32]
  inhibition: Active
HT-29 [33]
  Activity: 55.1%
